Source: patent US6358885B1, “Substituted phenylheterocyclic herbicides” (Mississippi State University, priority 1992, dated 2002)

Tests used:
barley = assay: Test B preemergence/postemergence greenhouse plant response rating 0 to 10; format: in vivo, Hordeum vulgare; settings: for Plant response rating, Barley: 0 to 10 scale
Method in brief: (§1)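 Test chemicals were sprayed onto freshly planted seed and, concurrently, onto young plants between the one and four leaf stage. After a twelve- to sixteen-day greenhouse period, each species was visually compared with untreated controls.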

bedstraw = assay: as above; format: in vivo, Galium aparine; settings: for Plant response rating, Bedstraw: 0 to 10 scale
Method in brief: as §1

blackgrass = assay: as above; format: in vivo, Alopecurus myosuroides; settings: for Plant response rating, Blackgrass: 0 to 10 scale
Method in brief: as §1

cotton = assay: as above; format: in vivo, Gossypium hirsutum; settings: for Plant response rating, Cotton: 0 to 10 scale
Method in brief: as §1

lambsquarters = assay: as above; format: in vivo, Chenopodium album; settings: for Plant response rating, Lambsquarter: 0 to 10 scale
Method in brief: as §1

sorghum [1] = assay: as above; format: in vivo, Sorghum bicolor; settings: for Plant response rating, Sorghum: 0 to 10 scale
Method in brief: as §1

sugar beet = assay: as above; format: in vivo, Beta vulgaris; settings: for Plant response rating, Sugar beet: 0 to 10 scale
Method in brief: as §1

wheat [2] = assay: as above; format: in vivo, Triticum aestivum; settings: for Plant response rating, Wheat: 0 to 10 scale
Method in brief: as §1

wild oat [3] = assay: as above; format: in vivo, Avena fatua; settings: for Plant response rating, Wild oat: 0 to 10 scale
Method in brief: as §1

crabgrass = assay: Test C preemergence/postemergence greenhouse plant response rating 0 to 100; format: in vivo, Digitaria sanguinalis; settings: for Plant response rating, Crabgrass: 125 g/ha, 0 to 100 scale
Method in brief: (§2)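 Compounds in non-phytotoxic solvent applied preemergence to sandy loam one day after planting, postemergence at the 1–4 leaf stage, or to ~2.5 cm floodwater over silt loam.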

downy brome = assay: as above; format: in vivo, Bromus tectorum; settings: for Plant response rating Downy Brome: 125 g/ha, 0 to 100 scale
Method in brief: as §2

rape = assay: as above; format: in vivo, Brassica napus; settings: for Plant response rating, Rape: 125 g/ha, 0 to 100 scale
Method in brief: as §2

ryegrass = assay: as above; format: in vivo, Lolium multiflorum; settings: for Plant response rating Ryegrass: 125 g/ha, 0 to 100 scale
Method in brief: as §2

sorghum [4] = assay: as above; format: in vivo, Sorghum bicolor; settings: for Plant response rating, Sorghum: 125 g/ha, 0 to 100 scale
Method in brief: as §2

wheat [5] = assay: as above; format: in vivo, Triticum aestivum; settings: for Plant response rating, Wheat: 125 g/ha, 0 to 100 scale
Method in brief: as §2

wild buckwheat = assay: as above; format: in vivo, Polygonum convolvulus; settings: for Plant response rating, Wild buckwheat: 125 g/ha, 0 to 100 scale
Method in brief: as §2

wild oat [6] = assay: as above; format: in vivo, Avena fatua; settings: for Plant response rating, Wild oat: 125 g/ha, 0 to 100 scale
Method in brief: as §2

barnyardgrass = assay: Test C flood test plant response rating 0 to 100; format: in vivo, Echinochloa crus-galli
Method in brief: as §2

CCOCOc1cc(-c2nn3c(c2Cl)CCCC3)c(F)cc1Cl [Compound 59]
Plant response rating, Barley (barley; POSTEMERGENCE, Rate 50 g/ha): 4 | Plant response rating, Barley (barley; PREEMERGENCE, Rate 50 g/ha): 2 | Plant response rating (0 to 10 scale), Barley (barley; PREEMERGENCE, Rate 200 g/ha): 5 | Plant response rating, Barley (barley; Rate 200 g/ha, POSTEMERGENCE): 4 | Plant response rating, Bedstraw (bedstraw; POSTEMERGENCE, Rate 50 g/ha): 10 | Plant response rating, Bedstraw (bedstraw; PREEMERGENCE, Rate 50 g/ha): 8 | Plant response rating (0 to 10 scale), Bedstraw (bedstraw; PREEMERGENCE, Rate 200 g/ha): 10 | Plant response rating, Bedstraw (bedstraw; Rate 200 g/ha, POSTEMERGENCE): 8 | Plant response rating, Blackgrass (blackgrass; POSTEMERGENCE, Rate 50 g/ha): 4 | Plant response rating, Blackgrass (blackgrass; PREEMERGENCE, Rate 50 g/ha): 4 | Plant response rating (0 to 10 scale), Blackgrass (blackgrass; PREEMERGENCE, Rate 200 g/ha): 5 | Plant response rating, Blackgrass (blackgrass; Rate 200 g/ha, POSTEMERGENCE): 5 | Plant response rating, Cotton (cotton; POSTEMERGENCE, Rate 50 g/ha): 10 | Plant response rating, Cotton (cotton; PREEMERGENCE, Rate 50 g/ha): 4 | Plant response rating (0 to 10 scale), Cotton (cotton; PREEMERGENCE, Rate 200 g/ha): 7 | Plant response rating, Cotton (cotton; Rate 200 g/ha, POSTEMERGENCE): 10 | Plant response rating, Lambsquarter (lambsquarters; POSTEMERGENCE, Rate 50 g/ha): 10 | Plant response rating, Lambsquarter (lambsquarters; PREEMERGENCE, Rate 50 g/ha): 10 | Plant response rating (0 to 10 scale), Lambsquarter (lambsquarters; PREEMERGENCE, Rate 200 g/ha): 10 | Plant response rating, Lambsquarter (lambsquarters; Rate 200 g/ha, POSTEMERGENCE): 10 | Plant response rating, Sorghum (sorghum [1]; POSTEMERGENCE, Rate 50 g/ha): 3 | Plant response rating, Sorghum (sorghum [1]; PREEMERGENCE, Rate 50 g/ha): 1 | Plant response rating (0 to 10 scale), Sorghum (sorghum [1]; PREEMERGENCE, Rate 200 g/ha): 5 | Plant response rating, Sorghum (sorghum [1]; Rate 200 g/ha, POSTEMERGENCE): 4 | Plant response rating, Sugar beet (sugar beet; POSTEMERGENCE, Rate 50 g/ha): 10 | Plant response rating, Sugar beet (sugar beet; PREEMERGENCE, Rate 50 g/ha): 9 | Plant response rating (0 to 10 scale), Sugar beet (sugar beet; PREEMERGENCE, Rate 200 g/ha): 10 | Plant response rating, Sugar beet (sugar beet; Rate 200 g/ha, POSTEMERGENCE): 10 | Plant response rating, Wheat (wheat [2]; POSTEMERGENCE, Rate 50 g/ha): 7 | Plant response rating, Wheat (wheat [2]; PREEMERGENCE, Rate 50 g/ha): 4 | Plant response rating (0 to 10 scale), Wheat (wheat [2]; PREEMERGENCE, Rate 200 g/ha): 4 | Plant response rating, Wheat (wheat [2]; Rate 200 g/ha, POSTEMERGENCE): 6 | Plant response rating, Wild oat (wild oat [3]; POSTEMERGENCE, Rate 50 g/ha): 7 | Plant response rating, Wild oat (wild oat [3]; PREEMERGENCE, Rate 50 g/ha): 2 | Plant response rating (0 to 10 scale), Wild oat (wild oat [3]; PREEMERGENCE, Rate 200 g/ha): 7 | Plant response rating, Wild oat (wild oat [3]; Rate 200 g/ha, POSTEMERGENCE): 7 | Plant response rating, Crabgrass (crabgrass; POSTEMERGENCE): 70 | Plant response rating (0 to 100), Crabgrass (crabgrass; POSTEMERGENCE, Rate 2 g/ha): 10 | Plant response rating, Crabgrass (crabgrass; PREEMERGENCE): 90 | Plant response rating (0 to 100), Crabgrass (crabgrass; PREEMERGENCE, Rate 2 g/ha): 0 | Plant response rating (0 to 100), Crabgrass (crabgrass; Rate 8 g/ha, POSTEMERGENCE): 30 | Plant response rating (0 to 100), Crabgrass (crabgrass; Rate 8 g/ha, PREEMERGENCE): 0 | Plant response rating (0 to 100), Crabgrass (crabgrass; Rate 31 g/ha, POSTEMERGENCE): 40 | Plant response rating (0 to 100), Crabgrass (crabgrass; Rate 31 g/ha, PREEMERGENCE): 30 | Plant response rating Downy Brome (downy brome; POSTEMERGENCE): 90 | Plant response rating (0 to 100), Downy Brome (downy brome; POSTEMERGENCE, Rate 2 g/ha): 20 | Plant response rating Downy Brome (downy brome; PREEMERGENCE): 60 | Plant response rating (0 to 100), Downy Brome (downy brome; PREEMERGENCE, Rate 2 g/ha): 0 | Plant response rating (0 to 100), Downy Brome (downy brome; Rate 8 g/ha, POSTEMERGENCE): 50 | Plant response rating (0 to 100), Downy Brome (downy brome; Rate 8 g/ha, PREEMERGENCE): 0 | Plant response rating (0 to 100), Downy Brome (downy brome; Rate 31 g/ha, POSTEMERGENCE): 70 | Plant response rating (0 to 100), Downy Brome (downy brome; Rate 31 g/ha, PREEMERGENCE): 30 | Plant response rating, Rape (rape; POSTEMERGENCE): 100 | Plant response rating (0 to 100), Rape (rape; POSTEMERGENCE, Rate 2 g/ha): 20 | Plant response rating, Rape (rape; PREEMERGENCE): 40 | Plant response rating (0 to 100), Rape (rape; PREEMERGENCE, Rate 2 g/ha): 0 | Plant response rating (0 to 100), Rape (rape; Rate 8 g/ha, POSTEMERGENCE): 40 | Plant response rating (0 to 100), Rape (rape; Rate 8 g/ha, PREEMERGENCE): 0 | Plant response rating (0 to 100), Rape (rape; Rate 31 g/ha, POSTEMERGENCE): 70 | Plant response rating (0 to 100), Rape (rape; Rate 31 g/ha, PREEMERGENCE): 0 | Plant response rating Ryegrass (ryegrass; POSTEMERGENCE): 80 | Plant response rating (0 to 100), Ryegrass (ryegrass; POSTEMERGENCE, Rate 2 g/ha): 10 | Plant response rating Ryegrass (ryegrass; PREEMERGENCE): 90 | Plant response rating (0 to 100), Ryegrass (ryegrass; PREEMERGENCE, Rate 2 g/ha): 0 | Plant response rating (0 to 100), Ryegrass (ryegrass; Rate 8 g/ha, POSTEMERGENCE): 20 | Plant response rating (0 to 100), Ryegrass (ryegrass; Rate 8 g/ha, PREEMERGENCE): 20 | Plant response rating (0 to 100), Ryegrass (ryegrass; Rate 31 g/ha, POSTEMERGENCE): 40 | Plant response rating (0 to 100), Ryegrass (ryegrass; Rate 31 g/ha, PREEMERGENCE): 50 | Plant response rating, Sorghum (sorghum [4]; POSTEMERGENCE): 70 | Plant response rating (0 to 100), Sorghum (sorghum [4]; POSTEMERGENCE, Rate 2 g/ha): 20 | Plant response rating, Sorghum (sorghum [4]; PREEMERGENCE): 20 | Plant response rating (0 to 100), Sorghum (sorghum [4]; PREEMERGENCE, Rate 2 g/ha): 0 | Plant response rating (0 to 100), Sorghum (sorghum [4]; Rate 8 g/ha, POSTEMERGENCE): 40 | Plant response rating (0 to 100), Sorghum (sorghum [4]; Rate 8 g/ha, PREEMERGENCE): 0 | Plant response rating (0 to 100), Sorghum (sorghum [4]; Rate 31 g/ha, POSTEMERGENCE): 60 | Plant response rating (0 to 100), Sorghum (sorghum [4]; Rate 31 g/ha, PREEMERGENCE): 10 | Plant response rating, Wheat (wheat [5]; POSTEMERGENCE): 70 | Plant response rating (0 to 100), Wheat (wheat [5]; POSTEMERGENCE, Rate 2 g/ha): 10 | Plant response rating, Wheat (wheat [5]; PREEMERGENCE): 10 | Plant response rating (0 to 100), Wheat (wheat [5]; PREEMERGENCE, Rate 2 g/ha): 0 | Plant response rating (0 to 100), Wheat (wheat [5]; Rate 8 g/ha, POSTEMERGENCE): 40 | Plant response rating (0 to 100), Wheat (wheat [5]; Rate 8 g/ha, PREEMERGENCE): 0 | Plant response rating (0 to 100), Wheat (wheat [5]; Rate 31 g/ha, POSTEMERGENCE): 60 | Plant response rating (0 to 100), Wheat (wheat [5]; Rate 31 g/ha, PREEMERGENCE): 0 | Plant response rating, Wild buckwheat (wild buckwheat; POSTEMERGENCE): 100 | Plant response rating (0 to 100), Wild buckwheat (wild buckwheat; POSTEMERGENCE, Rate 2 g/ha): 100 | Plant response rating, Wild buckwheat (wild buckwheat; PREEMERGENCE): 100 | Plant response rating (0 to 100), Wild buckwheat (wild buckwheat; PREEMERGENCE, Rate 2 g/ha): 0 | Plant response rating (0 to 100), Wild buckwheat (wild buckwheat; Rate 8 g/ha, POSTEMERGENCE): 100 | Plant response rating (0 to 100), Wild buckwheat (wild buckwheat; Rate 8 g/ha, PREEMERGENCE): 0 | Plant response rating (0 to 100), Wild buckwheat (wild buckwheat; Rate 31 g/ha, POSTEMERGENCE): 100 | Plant response rating (0 to 100), Wild buckwheat (wild buckwheat; Rate 31 g/ha, PREEMERGENCE): 50 | Plant response rating, Wild oat (wild oat [6]; POSTEMERGENCE): 60 | Plant response rating (0 to 100), Wild oat (wild oat [6]; POSTEMERGENCE, Rate 2 g/ha): 10 | Plant response rating, Wild oat (wild oat [6]; PREEMERGENCE): 30 | Plant response rating (0 to 100), Wild oat (wild oat [6]; PREEMERGENCE, Rate 2 g/ha): 0 | Plant response rating (0 to 100), Wild oat (wild oat [6]; Rate 8 g/ha, POSTEMERGENCE): 30 | Plant response rating (0 to 100), Wild oat (wild oat [6]; Rate 8 g/ha, PREEMERGENCE): 0 | Plant response rating (0 to 100), Wild oat (wild oat [6]; Rate 31 g/ha, POSTEMERGENCE): 40 | Plant response rating (0 to 100), Wild oat (wild oat [6]; Rate 31 g/ha, PREEMERGENCE): 0 | Plant response rating (0 to 100), Barnyardgrass 2 (barnyardgrass; POSTEMERGENCE section, flood test, Rate 2 g/ha): 0 | Plant response rating (0 to 100), Barnyardgrass 2 (barnyardgrass; Rate 8 g/ha, under POSTEMERGENCE head (flood test species)): 90 | Plant response rating (0 to 100), Barnyardgrass 2 (barnyardgrass; Rate 31 g/ha, under POSTEMERGENCE head (flood test species)): 100 | Plant response rating Barnyardgrass 2 (barnyardgrass; flood test species listed under POSTEMERGENCE, 125 g/ha, 0 to 100 scale): 100
